Reference: publication PMC6728359, “Crystal structure and chemical inhibition of essential schistosome host-interactive virulence factor carbonic anhydrase SmCA” (Communications Biology, 2019)
Where two headings read alike, the source gives them in different places.

Experiments:
[1] = target: rSmCA (recombinant SmCA, α-carbonic anhydrase) (Schistosoma mansoni, UniProt A0A3Q0KSG2); assay: biochemical; format: biochemical
[2] = target: recombinant human isoform hCA I; conditions: cited from earlier work
[3] = target: recombinant human isoform hCA II; conditions: cited from earlier work

rSmCA (recombinant SmCA, α-carbonic anhydrase), sequence (A0A3Q0KSG2 21-298 limits assumed): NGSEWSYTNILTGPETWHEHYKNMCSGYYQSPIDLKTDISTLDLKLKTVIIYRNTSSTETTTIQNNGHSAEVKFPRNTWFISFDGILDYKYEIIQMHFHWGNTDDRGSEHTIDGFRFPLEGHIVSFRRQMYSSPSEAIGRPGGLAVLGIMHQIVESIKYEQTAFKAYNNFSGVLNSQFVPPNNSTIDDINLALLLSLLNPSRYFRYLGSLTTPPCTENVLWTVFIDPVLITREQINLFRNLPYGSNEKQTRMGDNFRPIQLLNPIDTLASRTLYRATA

Row | Compound | Ki [2] [mM] | Ki ([1]; read-out: Ki SmCA) [mM] | also measured
1 | OB(O)c1ccccc1 [Ph-B(OH) 2, phenylboronic acid] | 58.6 |  | Ki [1]: 0.02 mM; higher affinity for SmCA versus human isoforms hCA I or hCA II [1]: > 1000 fold
2 | N#CO [CNO^−, cyanate] |  | 4.18 | 
3 | NS(=O)(=O)c1nnc(NS(=O)(=O)c2ccccc2)s1 [BZA, benzolamide] |  |  | Ki [1]: 3.41e-05 mM
4 | F [F^−, fluoride] |  | 6.44 | 
5 | CF3SO3^− |  | 5.62 | 
6 | [N-]=[N+]=[N-] [N3^−, azide] |  | 2.43 | 
7 | CCN[C@H]1CN(CCCOC)S(=O)(=O)c2sc(S(N)(=O)=O)cc21 [BRZ, brinzolamide] |  |  | Ki [1]: 4.66e-05 mM
8 | O=S(O)O [HSO3^−] | 18 | > 100 | 
9 | CC1(C)O[C@@H]2[C@@H](CO[C@@]3(COS(N)(=O)=O)OC(C)(C)O[C@@H]23)O1 [TPM, topiramate] |  |  | Ki ([3]; read-out: Ki hCAII): 1e-05 mM; Ki [1]: 0.000568 mM
10 | [O-][Cl+3]([O-])([O-])O [ClO4^−, perchlorate] |  | > 100 | 
11 | O=[N+]([O-])O [NO3−, nitrate] | 7 | 7.87 | 
12 | CC(=O)/N=c1/sc(S(N)(=O)=O)nn1C [MZA, methazolamide] |  |  | Ki [1]: 3.89e-05 mM
13 | NS(N)(=O)=O [H 2 NSO 2 NH 2, sulfamide] |  | 0.007 | greater potency over SmCA versus hCA I [1]: 44 fold; greater potency over SmCA versus hCA II [1]: 161 fold
14 | N#C[SeH] [SeCN^−] | 0.085 | 2.16 | 
15 | [O]=[Re](=[O])(=[O])[OH] [ReO4^−] |  | 8.75 | 
16 | O=[Te](=O)(O)O [TeO4^2−] | 0.66 | > 100 | 
17 | CS3^2− | 0.0087 | 6.16 | 
18 | O=S(=O)(O)F [FSO3^−] |  | 6.02 | 
19 | [O]=[Ru](=[O])(=[O])=[O] [RuO4^−] |  | 2.07 | 

Row | Compound | Ki [2] [mM] | Ki ([1]; read-out: Ki SmCA) [mM] | also measured
20 | O=C(O)O [HCO3−] |  | 5.1 | 
21 | NS(=O)(=O)c1ccc(N2CCCCS2(=O)=O)cc1 [SLT, sulthiame] |  |  | Ki [1]: 0.00356 mM
22 | S2O8^2− |  | 7.85 | 
23 | NS(=O)(=O)c1cc2c(cc1Cl)NCNS2(=O)=O [HCT, hydrochlorothiazide] |  |  | Ki [1]: 0.000399 mM
24 | S [HS^−, hydrosulfide] | 0.0006 | 5.96 | 
25 | [O]=[Sn]([OH])[OH] [SnO3^2−] |  | 4.11 | 
26 | NS(=O)(=O)c1ccc(S(=O)(=O)Nc2cccc3c(Cl)c[nH]c23)cc1 [IND, indisulam] |  |  | Ki [1]: 3.65e-05 mM
27 | CCN(CC)C(=S)S [Et2NCS2^−] | 0.0008 | 0.59 | Ki [3]: 0.0031 mM
28 | N#CS [SCN−, thiocyanate] |  | 3.15 | 
29 | [Br-].[K+] [Br−, bromide] | 4 | 9.35 | Ki [3]: 63 mM
30 | Cc1onc(-c2ccccc2)c1-c1ccc(S(N)(=O)=O)cc1 [VLX, valdecoxib] |  |  | Ki [1]: 0.000431 mM
31 | OsO5^2− |  | 7.55 | 
32 | NS(=O)(=O)Cc1noc2ccccc12 [ZNS, zonisamide] |  |  | Ki [1]: 0.000937 mM
33 | SO4^2− |  | 6.86 | 
34 | I [I^−, iodide] | 0.3 | 5.11 | 
35 | O=C1NS(=O)(=O)c2ccccc21 [SAC, saccharin] |  |  | Ki [1]: > 0.05 mM; Ki ([2]; read-out: Ki hCAI): 0.0185 mM
36 | O=[Se](=O)(O)O [SeO4^2−] |  | 6.33 | 
37 | P2O7^4− | 25.8 | > 100 | 
38 | O=[As](O)(O)c1ccccc1 [Ph-AsO 3 H 2, phenylarsonic acid] | 31.7 |  | Ki [3]: 49.2 mM
